This note sets out measurements from ChEMBL document CHEMBL6078630, “Design, synthesis, and bioactivity investigation of novel cyclic lipopeptide antibiotics targeting top-priority multidrug-resistant gram-negative bacteria” (Eur J Med Chem, 2024).

Data set [1] is described as follows: Acute toxicity in iv dosed Swiss mouse assessed as maximum tolerated dose measured after 24 hrs. The format is organism-based. The conditions noted are these: in vivo.
Another data set has as its system Acinetobacter baumannii. Put plainly: Antibacterial activity against carbapenem-resistant Acinetobacter baumannii NCTC13304 infected in ICR mouse model administered intravenously with compound at 1 and 6 hrs post-infection and measured after 7 days. To be noted: NCTC13304, 168 h, route iv, time 7 day. The class given is functional.
A further data set relates to Klebsiella pneumoniae. The data set can be described thus: Antibacterial activity against carbapenem-resistant Klebsiella pneumoniae ATCC BAA-1705 infected in ICR mouse model administered intravenously with compound at 1 and 6 hrs post-infection and measured after 7 days. To be noted: ATCC BAA-1705, 168 h, route iv, time 7 day. The class given is functional.
Another data set has as its system Escherichia coli. Put plainly: Antibacterial activity against Escherichia coli ATCC BAA-2523 infected in ICR mouse model administered intravenously with compound at 1 and 6 hrs post-infection and measured after 7 days. The class given is functional. To be noted: ATCC BAA-2523, 168 h, route iv, time 7 day.
Data set [2] relates to Pseudomonas aeruginosa. Put plainly: Antibacterial activity against Pseudomonas aeruginosa ATCC 27853 infected in ICR mouse model infected in ICR mouse model assessed as survival rate at 20 mg/kg, iv administered at 1 and 6 hrs post-infection and measured after 7 days relative to control. The format is functional. To be noted: ATCC 27853, 168 h, time 7 day.
Data set [3] concerns Pseudomonas aeruginosa. Put plainly: Antibacterial activity against Pseudomonas aeruginosa ATCC 27853 infected in ICR mouse model administered intravenously with compound at 1 and 6 hrs post-infection and measured after 7 days. The class given is functional. To be noted: ATCC 27853, 168 h, route iv, time 7 day.

Bridge positions count the residues as written; N and C are the ends. Square brackets hold non-standard residues; d marks the D form. Peptide text beside a SMILES is read from it. * marks the point of attachment. Octanoyl(6-Me) = CCC(C)CCCCC(=O)*; Dab = NCC[C@H](N)C(=O)O

As a reminder, the MTD is the highest dose tested that stayed within the study's limit of toxicity. `CCC(C)CCCCC(=O)N[C@@H](CCN)C(=O)N[C@H](C(=O)N[C@@H](CCN)C(=O)N[C@H]1CCNC(=O)[C@H]([C@@H](C)O)NC(=O)[C@H](CCN)NC(=O)[C@H](CCN)NC(=O)[C@H](CC(C)C)NC(=O)[C@@H](CC(C)C)NC(=O)[C@H](CCN)NC1=O)[C@@H](C)O` (stereo partly drawn) ({Octanoyl(6-Me)}-[Dab]T[Dab][Dab][Dab][dL]L[Dab][Dab]T; lactam 4-C) [listing 1 of 2 here]: the MTD at 24 h in data set [1] came to 5.3 mg/kg.
As usually defined, the ED50 is the dose that gives a 50% effect, or the effect in half of the subjects. For the compound `CCC(C)CCCCC(=O)N[C@@H](CCN)C(=O)N[C@H](C(=O)N[C@@H](CCN)C(=O)N[C@H]1CCNC(=O)[C@H]([C@@H](C)O)NC(=O)[C@H](CCN)NC(=O)[C@H](CCN)NC(=O)[C@H](CC(C)C)NC(=O)[C@@H](CC(C)C)NC(=O)[C@H](CCN)NC1=O)[C@@H](C)O` (stereo partly drawn) ({Octanoyl(6-Me)}-[Dab]T[Dab][Dab][Dab][dL]L[Dab][Dab]T; lactam 4-C) [listing 2 of 2 here], the ED50 is 0.98 mg/kg with Acinetobacter baumannii, 0.39 mg/kg in the data set with Klebsiella pneumoniae and 0.47 mg/kg in the data set with Escherichia coli.
Take `C[C@@H](O)[C@H]1C(=O)N2C(C(=O)O)=C(S[C@@H]3CN[C@H](C(=O)N(C)C)C3)[C@H](C)[C@H]12` [MEROPENEM]: the survival at 20 mg/kg in the data set on Pseudomonas aeruginosa [2] stood at 100%. The median effective dose (ED50) in the data set on Pseudomonas aeruginosa [3] worked out at 7.07 mg/kg.
